Experimental data reported in patent US20230049350A1, “COMPOUNDS FOR TREATING BRAIN CANCER” (Purdue Pharmaceutical Products L.P., priority 2014, published 2023).

Assays:
[1] = tested on: GBM12 cells; test: Intracerebral luciferase-transfected GBM12 murine brain tumour model; format: in vivo, athymic mice; conditions: for median survival: IV weekly day +4, +11, +18, EDO-S101 60 mg/kg, bendamustine 50 mg/kg, controls 52 days
Description: Therapeutic activity of EDO-S101 was determined in murine brain tumour models against GBM, based on tumour growth as determined by bioluminescence imaging and survival analysis as determined by Kaplan-Meier analysis.
Murine brain tumour models were created by intracerebral injection of 3×10^5 luciferase-transfected GBM12 cells in athymic mice under aesthesia using a stereotactic platform. GBM12 is a MGMT negative tumour cell line. Eight-week-old athymic mice underwent minimum 7 \-day acclimation/quarantine prior to surgery. Surgery was performed in a laminar flow hood under sterile conditions. Tylenol 300 mg/kg PO was given for analgesia 24 hours before the surgery continuing 48 hours postoperatively. Aesthesia was achieved by inhalation of 1-2% isoflurane. After the mouse became well anesthetized, it was placed in the Kopf stereotactic instrument. A small amount of BNP antibiotic cream (a mixture of Bacitracin, Neomycin and Polymyxin) was smeared on its eyes to prevent infection and corneal damage during surgery. A strip of soft fabric was placed over the mouse’s body and tail to prevent excessive heat loss during surgery. The scalp area was cleaned with a 2% solution of Betadine and dried with cotton tipped applicator. A midline sagittal incision was made in the scalp.
A small burr hole was drilled in the left skull with a surgical drill (Kopf) or a Dremel drill according to the coordinates (AP: 0.5 mm, LM: 2.5 mm) as determined by reference to the mouse brain atlas by Franklin and Paxinos. […] The mice were monitored post-operatively at least twice a day for 5 days or until recovery is complete. […]
After intracerebral injection of the GBM cells, all the mice were subjected to bioluminescence imaging (BLI) twice a week starting at day-4 post-intracerebral injection to monitor the real-time in vivo tumour growth. […] Peak luminescent signals were recorded 10 minutes after luciferin injection. Regions of interest encompassing the intracranial area of signal were defined using Living Image software (Xenogen, Alameda, CA), and the total photons/s/steradian /cm2 was recorded. […]

[2] = tested on: U87 tumours; test: Mice with implanted U87 tumours, time to progression (Example 3); format: in vivo; conditions: 60 mg/kg iv days 1, 8 and 15, FIG. 9
Description: (§1) The above procedure was followed in similar manner using the cell lines U87G and U251G. Once again, EDO-S101 (60 mg/kg) was administered intravenously via the tail vein, but in these experiments it was administered at days 1, 8 and 15. In place of bendamustime, TMZ was administered as a comparison at 16 mg/kg for 5 consecutive days, po. The mice were sacrificed after 28 days.

[3] = tested on: U251 tumours; test: Mice with implanted U251 tumours, time to progression (Example 3); format: in vivo; conditions: 60 mg/kg iv days 1, 8 and 15, FIG. 8
Description: as §1

[4] = tested on: U251; test: Clonogenic survival with radiotherapy, U251; format: cell-based; conditions: 2.5 µM or 5 µM, 24 hr, plus radiotherapy, FIG. 10
Description: (§2) In a first experiment, U251, U87 and T98G cell lines were treated with radiotherapy alone or with radiotherapy and EDO-S101.
(§3) For clonogenic survival, exponentially growing cells (70% confluence) were cultured in regular media and treated with EDO-S101 at the appropriate concentrations, or vehicle (final DMSO concentration of 0.1%) for 24 hr. Tumour cell irradiation was done using a 6 MV linear accelerator Elekta Synergy using a clinically calibrated irradiation field of 30 × 30 cm. Two cm thick plates of perspex were positioned above and below the cell culture flasks completely filled with medium to compensate for the build-up effect. Non-irradiated controls were handled identically to the irradiated cells with the exception of the radiation exposure. […] Colonies containing more than 50 cells were counted. The plating efficiency (PE) was calculated as the number of colonies observed/the number of cell plated. The surviving fraction was calculated as the number of colonies formed in the treated dishes compared with the number formed in the control. The survival curves were analyzed using SPSS (Chicago, IL) statistical software by means of a fit of the data by a weighted, stratified, linear regression, according to the linear-quadratic formula: S(D)/S(O)=exp-(aD+bD2).

[5] = tested on: U87; test: Clonogenic survival with radiotherapy, U87; format: cell-based; conditions: 2.5 µM or 5 µM, 24 hr, plus radiotherapy, FIG. 10
Description: as §2, §3

[6] = tested on: T98G; test: Clonogenic survival with radiotherapy, T98G; format: cell-based; conditions: 2.5 µM or 5 µM, 24 hr, plus radiotherapy, FIG. 10
Description: as §2, §3

Structure (SMILES)	median survival [1]	time to progression (TTP) versus control and TMZ [2]	time to progression (TTP) versus control and TMZ [3]	% survival rate (surviving fraction) with radiotherapy versus radiotherapy alone [4]	% survival rate (surviving fraction) with radiotherapy versus radiotherapy alone [5]	tumour growth (bioluminescence imaging) ([1]; IV 60 mg/kg day +4, +11, +18)	% survival rate (surviving fraction) with radiotherapy versus radiotherapy alone [6]
Cn1c(CCCC(=O)O)nc2cc(N(CCCl)CCCl)ccc21 [bendamustine]	58 days						
Cn1c(CCCCCCC(=O)NO)nc2cc(N(CCCl)CCCl)ccc21 [EDO-S101]	66 days	significantly longer	significantly longer	considerably reduced	considerably reduced	suppression of tumour growth	considerably reduced
